# Literature values in PubChem BioAssay AID1259409 (Chemical Carcinogenesis Research Information System (CCRIS), 2018).
# System: rodent chemically induced tumor inhibition, incidence and multiplicity
# Assay: CCRIS tumor inhibitor studies
smiles,measurement,setting,value
CC(=O)OC/C=C(C)/C=C/C=C(C)/C=C/C1=C(C)CCCC1(C)C,"tumour outcome (control, treated, inhibition, significance)","Carcinogen: 1,2-DIMETHYLHYDRAZINE, 540-73-8, Dose [Inhibitor]: 0.8 MMOL/KG DIET DAILY STARTING 12 D AFTER CARCINOGEN TREATMENT THROUGH ABOUT 8 MO AFTER CARCINOGEN DOSE (STUDY DURATION, Route [Inhibitor]: ORAL, Species: RAT, Strain/Sex: F344/MALE, Target Tissue: Type of Lesion: COLON: ADENOCARCINOMA, Dose [Carcinogen]: 150 MG/KG BW ONCE, Promoter: NONE USED","10/39 (26%), 7/30 (23%), 12%, not significant"
same,"tumour outcome (control, treated, inhibition, significance)","Carcinogen: 1,2-DIMETHYLHYDRAZINE, 540-73-8, Dose [Inhibitor]: 0.8 MMOL/KG DIET DAILY STARTING 12 D AFTER CARCINOGEN TREATMENT THROUGH ABOUT 8 MO AFTER CARCINOGEN DOSE (STUDY DURATION, Route [Inhibitor]: ORAL, Species: RAT, Strain/Sex: F344/MALE, Target Tissue: Type of Lesion: COLON: ADENOMA, Dose [Carcinogen]: 150 MG/KG BW ONCE, Promoter: NONE USED","23/39 (59%), 9/30 (30%), 49%, p<0.05"
same,"tumour outcome (control, treated, inhibition, significance)","Carcinogen: 7,12-DIMETHYLBENZ[A]ANTHRACENE, 57-97-6, Dose [Inhibitor]: 0, 328 MG/KG OF DIET FROM DAY 34 TO 54 OF AGE (STUDY DURATION: 200 D), Route [Inhibitor]: ORAL, Species: RAT, Strain/Sex: SPRAGUE-DAWLEY/FEMALE, Target Tissue: Type of Lesion: MAMMARY GLAND: ADENOCARCINOMA, Dose [Carcinogen]: 15 MG/RAT ONCE AT 55 D OF AGE, Promoter: NONE USED","93%, 97%, -4%, not calculated"
same,"tumour outcome (control, treated, inhibition, significance)","Carcinogen: 7,12-DIMETHYLBENZ[A]ANTHRACENE, 57-97-6, Dose [Inhibitor]: 0, 328 MG/KG OF DIET FROM DAY 34 TO 54 OF AGE (STUDY DURATION: 200 D), Route [Inhibitor]: ORAL, Species: RAT, Strain/Sex: SPRAGUE-DAWLEY/FEMALE, Target Tissue: Type of Lesion: MAMMARY GLAND: BENIGN TUMORS, Dose [Carcinogen]: 15 MG/RAT ONCE AT 55 D OF AGE, Promoter: NONE USED","28%, 40%, -43%, not calculated"
same,"tumour outcome (control, treated, inhibition, significance)","Carcinogen: 7,12-DIMETHYLBENZ[A]ANTHRACENE, 57-97-6, Dose [Inhibitor]: 0, 350 MG/KG 1/WK FROM 40-90 D OF AGE THEN 0, 250 MG/KG 1/WK FROM 90-180 D OF AGE AND 0, 200 MG/KG 1/WK FROM 180-240 D O, Dose [Inhibitor]: 0, 350 MG/KG 1/WK FROM 40-90 D OF AGE THEN 0, 250 MG/KG 1/WK FROM 90-180 D OF AGE AND 0, 200 MG/KG 1/WK FROM 180-240 D O, Route [Inhibitor]: INTRAPERITONEAL, Species: RAT, Strain/Sex: SPRAGUE DAWLEY/FEMALE, Target Tissue: Type of Lesion: MAMMARY GLAND: ADENOCARCINOMA, FIBROADENOMA, Dose [Carcinogen]: 5 MG IN 0.2 ML SESAME OIL 1/2 D FOR 12 D BEGINNING AT 50 D OF AGE, Promoter: NONE USED","100%, 48%, 52%, p<0.001"
same,"tumour outcome (control, treated, inhibition, significance)","Carcinogen: 7,12-DIMETHYLBENZ[A]ANTHRACENE, 57-97-6, Dose [Inhibitor]: 0.2 MILLIMOLAR IN DIET DAILY FOR 27 WK STARTING 3 D AFTER LAST CARCINOGEN DOSE AND CONTINUING THE END OF THE STUDY (STUD, Route [Inhibitor]: ORAL, Species: MOUSE, Strain/Sex: BDF/FEMALE, Target Tissue: Type of Lesion: MAMMARY GLAND: ADENOCARCINOMA, Dose [Carcinogen]: 1 MG/WK FOR 6 WK, Promoter: NONE USED","22/75 (29%), 31/75 (41%), -41%, not significant"
same,"tumour outcome (control, treated, inhibition, significance)","Carcinogen: 7,12-DIMETHYLBENZ[A]ANTHRACENE, 57-97-6, Dose [Inhibitor]: 0.2 MILLIMOLAR IN DIET DAILY FOR 27 WK STARTING 3 D AFTER LAST CARCINOGEN DOSE AND CONTINUING THROUGH THE END OF THE STU, Route [Inhibitor]: ORAL, Species: MOUSE, Strain/Sex: BDF/FEMALE, Target Tissue: Type of Lesion: MAMMARY GLAND: ADENOCANTHOMA, Dose [Carcinogen]: 1 MG/WK FOR 6 WK, Promoter: NONE USED","20/75 (27%), 19/75 (25%), 7%, not significant"
same,"tumour outcome (control, treated, inhibition, significance)","Carcinogen: 7,12-DIMETHYLBENZ[A]ANTHRACENE, 57-97-6, Dose [Inhibitor]: 68 MG/KG DIET DAILY FOR 11 WK STARTING 3 D AFTER CARCINOGEN TREATMENT (STUDY DURATION: 11 WK), Route [Inhibitor]: ORAL, Species: RAT, Strain/Sex: SPRAGUE-DAWLEY/FEMALE, Target Tissue: Type of Lesion: MAMMARY GLAND: CARCINOMA, Dose [Carcinogen]: 20 MG/ML SESAME OIL ONCE AT 53 D OF AGE, Promoter: NONE USED","100%, 92%, 8%, not significant"
same,"tumour outcome (control, treated, inhibition, significance)","Carcinogen: 7,12-DIMETHYLBENZ[A]ANTHRACENE, 57-97-6, Dose [Inhibitor]: 204 MG/KG DIET DAILY FOR 12 WK STARTING 3 D AFTER CARCINOGEN TREATMENT (STUDY DURATION: 12 WK), Route [Inhibitor]: ORAL, Species: RAT, Strain/Sex: SPRAGUE-DAWLEY/FEMALE, Target Tissue: Type of Lesion: MAMMARY GLAND: CARCINOMA, Dose [Carcinogen]: 10 MG/ML SESAME OIL ONCE AT 53 D OF AGE, Promoter: NONE USED","90%, 74%, 18%, not significant"
same,"tumour outcome (control, treated, inhibition, significance)","Carcinogen: 7,12-DIMETHYLBENZ[A]ANTHRACENE, 57-97-6, Dose [Inhibitor]: 250 MG/KG DIET DAILY FOR 28 WK STARTING 2 WK BEFORE START OF CARCINOGEN TREATMENT AND CONTINUING FOR DURATION OF STUDY (, Route [Inhibitor]: ORAL, Species: RAT, Strain/Sex: SPRAGUE-DAWLEY/FEMALE, Target Tissue: Type of Lesion: MAMMARY GLAND: TUMOR, Dose [Carcinogen]: 5 MG IN CORN OIL 1/WK FOR 3 WK, Promoter: NONE USED","90%, 47%, 48%, p<0.001"
same,"tumour outcome (control, treated, inhibition, significance)","Carcinogen: 7,12-DIMETHYLBENZ[A]ANTHRACENE, 57-97-6, Dose [Inhibitor]: 328 MG/KG DIET DAILY FOR 20 WK STARTING 3 D AFTER CARCINOGEN TREATMENT (STUDY DURATION: 26 WK), Route [Inhibitor]: ORAL, Species: RAT, Strain/Sex: SPRAGUE-DAWLEY/FEMALE, Target Tissue: Type of Lesion: MAMMARY GLAND: CARCINOMA, Dose [Carcinogen]: 5 MG/ML SESAME OIL ONCE AT 53 D OF AGE, Promoter: NONE USED","85%, 60%, 29%, not significant"
same,"tumour outcome (control, treated, inhibition, significance)","Carcinogen: DIMETHYLBENZ[A]ANTHRACENE, 57-97-6, Dose [Inhibitor]: 0, 328 MG/KG DIET IN VEHICLE 2 MO PRIOR TO CARCINOGEN DOSE AND CONTINUED UNTIL CARCINOGEN ADMINISTRATION (STUDY DURATION, Route [Inhibitor]: ORAL, Species: RAT, Strain/Sex: CD-1/FEMALE, Target Tissue: Type of Lesion: MAMMARY GLAND: ADENOCARCINOMA, Dose [Carcinogen]: 20 MG IN 1 ML SESAME OIL ONCE, Promoter: NONE USED","63%, 57%, 10%, not calculated"
same,"tumour outcome (control, treated, inhibition, significance)","Carcinogen: DIMETHYLBENZ[A]ANTHRACENE, 57-97-6, Dose [Inhibitor]: 0, 328 MG/KG DIET IN VEHICLE 2 MO PRIOR TO CARCINOGEN DOSE AND CONTINUED UNTIL CARCINOGEN ADMINISTRATION (STUDY DURATION, Route [Inhibitor]: ORAL, Species: RAT, Strain/Sex: CD-1/FEMALE, Target Tissue: Type of Lesion: MAMMARY GLAND: BENIGN TUMOR, Dose [Carcinogen]: 20 MG IN 1 ML SESAME OIL ONCE, Promoter: NONE USED","17%, 50%, -194%, p<0.05"
same,"tumour outcome (control, treated, inhibition, significance)","Carcinogen: ETHYLNITROSOUREA, 759-73-9, Dose [Inhibitor]: 0, 300000 IU KG IN 1:20 (VOLUME: VOLUME) SUNFLOWER OIL IN DIET 5 D/WK FOR LIFE (STUDY DURATION: 319 D), Route [Inhibitor]: ORAL, Species: RAT, Strain/Sex: ALBINO/MALE,FEMALE, Target Tissue: Type of Lesion: NERVOUS SYSTEM: SCHWANNOMA, Dose [Carcinogen]: 75 MG/KG IN SALINE BY INTRAVENOUS INJECTION ONCE 21 D AFTER CONCEPTION","37/89 (42%), 14/50 (28%), 33%, not calculated"
same,"tumour outcome (control, treated, inhibition, significance)","Carcinogen: ETHYLNITROSOUREA, 759-73-9, Dose [Inhibitor]: 0, 300000 IU/KG IN 1:20 (VOLUME: VOLUME) SUNFLOWER OIL IN DIET 5 D/WK FOR LIFE (STUDY DURATION: 319 D), Route [Inhibitor]: ORAL, Species: RAT, Strain/Sex: ALBINO/MALE,FEMALE, Target Tissue: Type of Lesion: BRAIN: GLIOMA OR ASTROCYTOMA, Dose [Carcinogen]: 75 MG/KG IN SALINE BY INTRAVENOUS INJECTION ONCE 21 D AFTER CONCEPTION","54/89 (61%), 38/50 (76%), -25%, not calculated"
same,"tumour outcome (control, treated, inhibition, significance)","Carcinogen: ETHYLNITROSOUREA, 759-73-9, Dose [Inhibitor]: 0, 300000 IU/KG IN 1:20 (VOLUME: VOLUME) SUNFLOWER OIL IN DIET 5 D/WK FOR LIFE (STUDY DURATION: 319 D), Route [Inhibitor]: ORAL, Species: RAT, Strain/Sex: ALBINO/MALE,FEMALE, Target Tissue: Type of Lesion: KIDNEY: MESENCHYMAL TUMOR OR ADENOCARCINOMA, Dose [Carcinogen]: 75 MG/KG IN SALINE BY INTRAVENOUS INJECTION ONCE 21 D AFTER CONCEPTION","33/89 (37%), 14/50 (28%), 24%, not calculated"
same,"tumour outcome (control, treated, inhibition, significance)","Carcinogen: ETHYLNITROSOUREA, 759-73-9, Dose [Inhibitor]: 0, 300000 IU/KG IN 1:20 (VOLUME: VOLUME) SUNFLOWER OIL IN DIET 5 D/WK FOR LIFE (STUDY DURATION: 319 D), Route [Inhibitor]: ORAL, Species: RAT, Strain/Sex: ALBINO/MALE,FEMALE, Target Tissue: Type of Lesion: SPINAL CORD: TUMOR, Dose [Carcinogen]: 75 MG/KG IN SALINE BY INTRAVENOUS INJECTION ONCE 21 D AFTER CONCEPTION","55/89 (62%), 26/50 (52%), 16%, not calculated"
same,"tumour outcome (control, treated, inhibition, significance)","Carcinogen: METHYLNITROSOUREA, 684-93-5, Dose [Inhibitor]: 0, 328 MG/KG DIET IN VEHICLE 2 MO PRIOR TO CARCINOGEN DOSE AND CONTINUED UNTIL CARCINOGEN ADMINISTRATION (STUDY DURATION, Route [Inhibitor]: ORAL, Species: RAT, Strain/Sex: CD-1/FEMALE, Target Tissue: Type of Lesion: MAMMARY GLAND: ADENOCARCINOMA, Dose [Carcinogen]: 50 MG/KG BW ONCE, Promoter: NONE USED","57%, 72%), -26%, not calculated"
same,"tumour outcome (control, treated, inhibition, significance)","Carcinogen: METHYLNITROSOUREA, 684-93-5, Dose [Inhibitor]: 0, 328 MG/KG DIET IN VEHICLE 2 MO PRIOR TO CARCINOGEN DOSE AND CONTINUED UNTIL CARCINOGEN ADMINISTRATION (STUDY DURATION, Route [Inhibitor]: ORAL, Species: RAT, Strain/Sex: CD-1/FEMALE, Target Tissue: Type of Lesion: MAMMARY GLAND: BENIGN TUMOR, Dose [Carcinogen]: 50 MG/KG BW ONCE, Promoter: NONE USED","10%, 21%, -110%, not calculated"
